Literature values as cited in patent EP2742940A1, “Salts of aza-bicyclo-di-aryl ethers for adminstration once daily, twice daily or thrice daily” (IP Gesellschaft für Management mbH, priority 2012, dated 2014).
“And” between values parts separate entries of the source, which are not always exact repeats. Equal values may be shown once. Read-outs that look alike come from different tables or passages of the source.

Assays:
BRAF-MEK-ERK cascade = BRAF-MEK-ERK cascade assay, mean ± SEM, n=3
A375 cells = settings: XTT, three days after compound addition
P-Erk = settings: A375 cells, P-Erk In-Cell-Western, 3 hrs treatment
[1] = rat; for PK-parameters compared to Example 1: one-way analysis of variance; for %F: p.o. (3 mg/kg)
DUSP6 = settings: A375 tumor bearing athymic-nude rats, single oral dose, at 12h and 24h (p=0.003 and p=0.006), two-way analysis of variance
[2] = parameters: Initial water content / Hygroscopy @ 85%RH: unit not given here; settings: for Initial water content: Example 7 comparison of salt forms; for moisture gain: at 85% RH
[3] = dogs (N=3), 1.4 µmol/kg p.o.
[4] = at 65°C
[5] = male Wistar rats, oral 10 mg/kg, Mean All (n=8)
[6] = male Wistar rats, oral 10 mg/kg, Median [range]
[7] = male Wistar rats, oral 10 mg/kg, individual rats 01-08, listed as mono-fumarate, 10 mg/kg

**Q.** For O=S(=O)(Nc1c(Nc2ccc(I)cc2F)c(F)c(F)c2ccoc12)C1(C[C@H](O)CO)CC1 [Example 1A, (S)-N-(4,5-difluoro-6-((2-fluoro-4-iodophenyl)amino)benzofuran-7-yl)-1-(2,3-dihydroxypropyl)cyclopropane-1-sulfonamide], which IC50 (BRAF-MEK-ERK cascade) is on record?
**A.** 0.002 ± 0.00025 µM

**Q.** And the GI50 (A375 cells)?
**A.** 0.0134 µM

**Q.** What about the EC50 (P-Erk) of the same molecule?
**A.** 0.0064 µM

**Q.** And the “PK-parameters compared to Example 1” value [1]?
**A.** improved PK-parameters

**Q.** And the “%F” value [1]?
**A.** 132%

**Q.** And the “lowering levels of DUSP-6 in tumor” value (DUSP6)?
**A.** significantly more effective than Example- IB

**Q.** For O=S(=O)(Nc1c(Nc2ccc(I)cc2F)c(F)c(F)c2ccoc12)C1(C[C@@H](O)CO)CC1 [Example 1B, (R)-N-(4,5-difluoro-6-((2-fluoro-4-iodophenyl)amino)benzofuran-7-yl)-1-(2,3-dihydroxypropyl)cyclopropane-1-sulfonamide], which GI50 (A375 cells) is on record?
**A.** 0.0296 µM

**Q.** And the EC50 (P-Erk)?
**A.** 0.0156 µM

**Q.** And the “PK-parameters compared to Example 1” value [1]?
**A.** improved PK-parameters

**Q.** What about the “%F” value [1] of the same molecule?
**A.** 126%

**Q.** What does the source list for O=S(=O)(Nc1c(Nc2ccc(I)cc2F)c(F)c(F)c2ccoc12)C1(CC(O)CO)CC1 (racemic) [Example 1, N-(4,5-difluoro-6-((2-fluoro-4-iodophenyl)amino)benzofuran-7-yl)-1-(2,3-dihydroxypropyl)cyclopropane-1-sulfonamide]?
**A.** IC50 (BRAF-MEK-ERK cascade): 0.0021 ± 0.00058 µM; GI50 (A375 cells): 0.0176 µM; EC50 (P-Erk): 0.0122 µM; %F [1]: 87%

**Q.** With Cc1ccc(-c2ccc(O[C@H]3CN4CCC3CC4)cn2)cc1.O=C(O)/C=C\C(=O)O [Maleate, maleate salt of (R)-3-(6-(4-methylphenyl)-pyridin-3-yloxy)-1-aza-bicyclo[2.2.2]octane] as the molecule, how does the “Hygroscopy @ 85%RH” value [2] read?
**A.** 0.3

**Q.** And the Initial water content [2]?
**A.** <0.1

**Q.** And the moisture gain [2]?
**A.** 0.3%

**Q.** Which “Hygroscopy @ 85%RH” value [2] does the source give for Cc1ccc(-c2ccc(O[C@H]3CN4CCC3CC4)cn2)cc1.O=C(O)/C=C/C(=O)O [Compound B, fumarate salt of (R)-3-(6-(4-methylphenyl)-pyridin-3-yloxy)-1-aza-bicyclo[2.2.2]octane] here?
**A.** 0.5

**Q.** What about the Initial water content [2] of the same molecule?
**A.** <0.5

**Q.** And the moisture gain [2]?
**A.** 0.5%

**Q.** What about the “Plasma (pmoles/ml±SD)” value ([3]; 0.5 hour) of the same molecule?
**A.** 49.4 ± 21.9 pmol/mL

**Q.** And the “Plasma (pmoles/ml±SD)” value ([3]; 1 hour)?
**A.** 67.6 ± 22.6 pmol/mL

**Q.** And the “Plasma (pmoles/ml±SD)” value ([3]; 2 hour)?
**A.** 75.2 ± 36.8 pmol/mL

**Q.** What about the “Plasma (pmoles/ml±SD)” value ([3]; 4 hour) of the same molecule?
**A.** 27.5 ± 13.3 pmol/mL

**Q.** And the “Plasma (pmoles/ml±SD)” value ([3]; 8 hour)?
**A.** 8.1 ± 3.0 pmol/mL

**Q.** And the “Plasma (pmoles/ml±SD)” value ([3]; 24 hour)?
**A.** 0.8 ± 0.7 pmol/mL

**Q.** What about the “Plasma (pmoles/ml±SD)” value ([3]; fumarate salt form, 0.25 hour) of the same molecule?
**A.** 14.7 ± 1.1 pmol/mL

**Q.** What about the “T1/2” value (male Wistar rats, oral 10 mg/kg, Mean All) of the same molecule?
**A.** 3.76 h

**Q.** And the “AUClast” value [5]?
**A.** 249 ng·h/mL

**Q.** And the “AUClast/Dose (h·ng/mL)/(mg/kg)” value [5]?
**A.** 25.4 (h·ng/mL)/(mg/kg)

**Q.** And the “Cmax” value [5]?
**A.** 161 ng/mL

**Q.** What about the “Cmax/Dose (ng/mL)/(mg/kg)” value [5] of the same molecule?
**A.** 16.5 (ng/mL)/(mg/kg)

**Q.** What about the “Concentration in plasma, Time (h) 0.25” value [5] of the same molecule?
**A.** 149 ng/mL

**Q.** What about the “Concentration in plasma, Time (h) 0.5” value [5] of the same molecule?
**A.** 132 ng/mL

**Q.** What about the “Concentration in plasma, Time (h) 1” value [5] of the same molecule?
**A.** 77.4 ng/mL

**Q.** And the “Concentration in plasma, Time (h) 2” value [5]?
**A.** 38.9 ng/mL

**Q.** What about the “Concentration in plasma, Time (h) 3” value [5] of the same molecule?
**A.** 19.5 ng/mL

**Q.** What about the “Concentration in plasma, Time (h) 4” value [5] of the same molecule?
**A.** 10.6 ng/mL

**Q.** And the “Concentration in plasma, Time (h) 6” value [5]?
**A.** 5.10 ng/mL

**Q.** What about the “Concentration in plasma, Time (h) 8” value [5] of the same molecule?
**A.** 2.54 ng/mL

**Q.** And the “Concentration in plasma, Time (h) 24” value [5]?
**A.** 0320 ng/mL

**Q.** What about the “Tlast” value [6] of the same molecule?
**A.** 24.0 h

**Q.** What about the “Tmax” value [6] of the same molecule?
**A.** 0.25 h

**Q.** What about the “AUClast” value [7] of the same molecule?
**A.** 202 ng·h/mL and 259 ng·h/mL and 212 ng·h/mL and 188 ng·h/mL and 269 ng·h/mL and 292 ng·h/mL and 298 ng·h/mL and 272 ng·h/mL

**Q.** What about the “AUClast/Dose (h·ng/mL)/(mg/kg)” value [7] of the same molecule?
**A.** 20.8 (h·ng/mL)/(mg/kg) and 26.3 (h·ng/mL)/(mg/kg) and 21.4 (h·ng/mL)/(mg/kg) and 192 (h·ng/mL)/(mg/kg) and 28.0 (h·ng/mL)/(mg/kg) and 30.1 (h·ng/mL)/(mg/kg) and 29.6 (h·ng/mL)/(mg/kg) and 27.9 (h·ng/mL)/(mg/kg)

**Q.** And the “Cmax” value [7]?
**A.** 167 ng/mL and 162 ng/mL and 78.4 ng/mL and 99.7 ng/mL and 242 ng/mL and 204 ng/mL and 184 ng/mL and 153 ng/mL

**Q.** And the “Cmax/Dose (ng/mL)/(mg/kg)” value [7]?
**A.** 17.2 (ng/mL)/(mg/kg) and 16.4 (ng/mL)/(mg/kg) and 7.88 (ng/mL)/(mg/kg) and 102 (ng/mL)/(mg/kg) and 25.2 (ng/mL)/(mg/kg) and 21.1 (ng/mL)/(mg/kg) and 18.3 (ng/mL)/(mg/kg) and 15.7 (ng/mL)/(mg/kg)

**Q.** And the “Concentration in plasma, Time (h) 0.25” value [7]?
**A.** 167 ng/mL and 162 ng/mL and 77.8 ng/mL and 890 ng/mL and 242 ng/mL and 204 ng/mL and 93.3 ng/mL and 153 ng/mL

**Q.** What about the “Concentration in plasma, Time (h) 0.5” value [7] of the same molecule?
**A.** 104 ng/mL and 130 ng/mL and 784 ng/mL and 99.7 ng/mL and 143 ng/mL and 179 ng/mL and 184 ng/mL and 138 ng/mL

**Q.** What about the “Concentration in plasma, Time (h) 1” value [7] of the same molecule?
**A.** 67.1 ng/mL and 88.8 ng/mL and 41.3 ng/mL and 62.8 ng/mL and 83.2 ng/mL and 80.8 ng/mL and 101 ng/mL and 94.2 ng/mL

**Q.** What about the “Concentration in plasma, Time (h) 2” value [7] of the same molecule?
**A.** 27.4 ng/mL and 39.2 ng/mL and 378 ng/mL and 24.6 ng/mL and 47.1 ng/mL and 37.6 ng/mL and 54.8 ng/mL and 42.6 ng/mL

**Q.** What about the “Concentration in plasma, Time (h) 3” value [7] of the same molecule?
**A.** 12.4 ng/mL and 17.7 ng/mL and 25.3 ng/mL and 11.7 ng/mL and 19.6 ng/mL and 20.6 ng/mL and 25.1 ng/mL and 23.2 ng/mL

**Q.** What about the “Concentration in plasma, Time (h) 4” value [7] of the same molecule?
**A.** 906 ng/mL and 10.6 ng/mL and 13.3 ng/mL and 5.90 ng/mL and 9.71 ng/mL and 11.8 ng/mL and 13.0 ng/mL and 11.1 ng/mL

**Q.** What about the “Concentration in plasma, Time (h) 6” value [7] of the same molecule?
**A.** 749 ng/mL and 3.47 ng/mL and 7.63 ng/mL and 5.79 ng/mL and 4.29 ng/mL and 4.24 ng/mL and 4.05 ng/mL and 3.87 ng/mL

**Q.** And the “Concentration in plasma, Time (h) 8” value [7]?
**A.** 291 ng/mL and 2.35 ng/mL and 3.62 ng/mL and 2.62 ng/mL and 2.46 ng/mL and 1.94 ng/mL and 238 ng/mL and 207 ng/mL

**Q.** What about the “T1/2” value [7] of the same molecule?
**A.** 2.44 h and 5.02 h and 3.62 h and 3.71 h and 2.02 h and 3.97 h and 5.51 h

**Q.** And the “Tlast” value [7]?
**A.** 8.0 h (2×) and 24.0 h (6×)

**Q.** And the “Tmax” value [7]?
**A.** 0.25 h (3×) and 025 h (2×) and 0.50 h (3×)

**Q.** What about the AUClast (rats, acute oral dosing of 10 mg/kg) of the same molecule?
**A.** 249+-42 h ng/ml

**Q.** What about the “Cmax of the free form in plasma” value (rats, acute oral dosing of 10 mg/kg (relative to free form)) of the same molecule?
**A.** 161+-53 ng/ml

**Q.** With Cc1ccc(-c2ccc(O[C@H]3CN4CCC3CC4)cn2)cc1.Cl [Hydrochloride, Form A, chloride salt (hydrochloride) of (R)-3-(6-(4-methylphenyl)-pyridin-3-yloxy)-1-aza-bicyclo[2.2.2]octane] as the molecule, how does the “Hygroscopy @ 85%RH” value [2] read?
**A.** ∼5

**Q.** And the Initial water content [2]?
**A.** ∼5

**Q.** And the moisture gain [2]?
**A.** about 5%

**Q.** For Cc1ccc(-c2ccc(O[C@H]3CN4CCC3CC4)cn2)cc1.O=C(O)CCC(=O)O [Succinate, succinate salt of (R)-3-(6-(4-methylphenyl)-pyridin-3-yloxy)-1-aza-bicyclo[2.2.2]octane], which “Hygroscopy @ 85%RH” value [2] is on record?
**A.** 0.3

**Q.** And the Initial water content [2]?
**A.** ∼4.5

**Q.** And the moisture gain [2]?
**A.** 0.3%

**Q.** For Cc1cn(-c2cc(NC(=O)c3ccc(C)c(Nc4nccc(-c5cccnc5)n4)c3)cc(C(F)(F)F)c2)cn1 [nilotinib, 4-methyl-3-[[4-(3-pyridinyl)-2-pyrimidinyl]amino]-N-[5-(4-methyl-1 H-imidazol-1-yl)-3-(trifluoromethyl)phenyl] benzamide], which “solubility in lactic acid” value [4] is on record?
**A.** > 600 mg/mL

**Q.** Which “Hygroscopy @ 85%RH” value [2] does the source give for Cc1ccc(-c2ccc(O[C@H]3CN4CCC3CC4)cn2)cc1.O=C(O)CC(=O)O [Malonate, malonate salt of (R)-3-(6-(4-methylphenyl)-pyridin-3-yloxy)-1-aza-bicyclo[2.2.2]octane] here?
**A.** 1.3

**Q.** And the Initial water content [2]?
**A.** ∼0

**Q.** What about the moisture gain [2] of the same molecule?
**A.** 1.3%

**Q.** With Cc1ccc(-c2ccc(O[C@H]3CN4CCC3CC4)cn2)cc1.O=P(O)(O)O [Phosphate, Form A, phosphate salt of (R)-3-(6-(4-methylphenyl)-pyridin-3-yloxy)-1-aza-bicyclo[2.2.2]octane] as the molecule, how does the “Hygroscopy @ 85%RH” value [2] read?
**A.** 0.2

**Q.** And the Initial water content [2]?
**A.** ∼0.5

**Q.** What about the moisture gain [2] of the same molecule?
**A.** 0.2%
